From ChEMBL document CHEMBL1201862, “PubChem BioAssay data set” (2004)
The source made the active and inactive calls.

Assays:
[1] = inhibitors of Vif binding to APOBEC3G peptide, primary screen, biochemical, TR-FRET, GST-Vif 1-94, biotin-A3G peptide, dose response retest (AID 1117319); assay type: functional;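 note: TR-FRET signal of purified GST-Vif binding a biotinylated A3G peptide; inhibitors lower the FRET signal by blocking Vif and A3G binding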
Beta-galactosidase = Beta-galactosidase (Escherichia coli, UniProt Q8VNN2); test: PubChem AID 485352; assay type: functional
[2] = target: T1, Type-1 angiotensin II receptor (Homo sapiens, UniProt P30556); test: AT1 receptor antagonists, dose response, selectivity assay for APJ receptor antagonist project, cell-based, uHTS hits (AID 463214); assay type: functional;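 note: antagonist potency against angiotensin II stimulated AT1 response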
T1 sequence (P30556 whole entry): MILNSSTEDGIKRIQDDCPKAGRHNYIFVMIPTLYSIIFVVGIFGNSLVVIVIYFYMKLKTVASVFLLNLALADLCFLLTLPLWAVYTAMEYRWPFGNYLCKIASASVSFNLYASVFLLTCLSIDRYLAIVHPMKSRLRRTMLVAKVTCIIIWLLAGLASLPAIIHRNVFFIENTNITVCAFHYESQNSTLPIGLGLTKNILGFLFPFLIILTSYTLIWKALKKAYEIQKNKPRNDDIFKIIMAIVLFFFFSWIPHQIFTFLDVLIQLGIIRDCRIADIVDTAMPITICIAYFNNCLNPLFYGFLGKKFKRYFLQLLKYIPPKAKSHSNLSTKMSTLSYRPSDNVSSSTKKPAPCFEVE

HeLa = test: HeLa cell cytotoxicity, dose response, cytotoxicity control, ATP luminescence, cherry-pick samples (AID 687004); assay type: functional, cell-based
[3] = target: Tyrosyl-DNA phosphodiesterase 2 (Homo sapiens, UniProt O95551); test: human TDP2 enzyme inhibitors, dose response, biochemical, epi absorbance, IC50 (AID 743297)
Albumin = Albumin (Bos taurus, UniProt P02769); test: Counterscreen for inhibitors of T-cell receptor (TCR)-CD3 interaction: Fluorescence-based biochemical high throughput dose response assay to identify inhibitors of T-cell receptor (TCR)-CD3 interaction using a TAMRA-labeled BSA probe.; assay type: functional
[4] = HEK293 cell cytotoxicity, dose response, cytotoxicity control, plate reader, cherry-picked samples (AID 743446); assay type: functional, cell-based
[5] = target: T2, Acyl-homoserine lactone acylase PvdQ (Pseudomonas aeruginosa (strain LESB58), UniProt Q9I194); test: P. aeruginosa PvdQ acylase inhibitors, dose response, biochemical, fluorescence, plate reader and imaging, cherry-picks (AID 493231)
T2 sequence (Q9I194 whole entry): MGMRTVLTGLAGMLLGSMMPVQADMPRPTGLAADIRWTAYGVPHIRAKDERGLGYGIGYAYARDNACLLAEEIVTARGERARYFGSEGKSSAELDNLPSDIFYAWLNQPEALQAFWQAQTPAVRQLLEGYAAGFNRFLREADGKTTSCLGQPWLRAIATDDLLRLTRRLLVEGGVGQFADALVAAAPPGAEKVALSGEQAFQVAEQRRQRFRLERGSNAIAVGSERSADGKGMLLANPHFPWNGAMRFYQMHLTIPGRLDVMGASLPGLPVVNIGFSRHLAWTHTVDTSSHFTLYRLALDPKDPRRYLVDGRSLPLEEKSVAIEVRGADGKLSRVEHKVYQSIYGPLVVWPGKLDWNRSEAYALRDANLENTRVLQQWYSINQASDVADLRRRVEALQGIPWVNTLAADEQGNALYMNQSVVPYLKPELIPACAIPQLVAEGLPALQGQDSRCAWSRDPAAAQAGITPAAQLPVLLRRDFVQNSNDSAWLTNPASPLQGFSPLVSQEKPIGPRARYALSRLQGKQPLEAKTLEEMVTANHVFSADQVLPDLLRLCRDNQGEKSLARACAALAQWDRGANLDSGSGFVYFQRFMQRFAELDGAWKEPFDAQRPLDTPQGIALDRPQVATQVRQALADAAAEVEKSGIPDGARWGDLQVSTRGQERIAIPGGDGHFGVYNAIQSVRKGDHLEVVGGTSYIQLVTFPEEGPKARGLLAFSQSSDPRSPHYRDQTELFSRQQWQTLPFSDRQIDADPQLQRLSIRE

[6] = A549 cell cytotoxicity, dose response, cytotoxicity control, plate reader, cherry-pick, antagonist series (AID 743412); assay type: functional, cell-based
[7] = MC4R antagonists, dose response, counter-screen for LGR2 antagonist project, cell-based, plate reader, cherry pick (AID 743444); assay type: functional;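 note: transfected HEK 293 cells stimulated with alpha-MSH peptide; potency of inhibitors of the alpha-MSH evoked signal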
[8] = HepG2 cell cytotoxicity, dose response, cytotoxicity control, plate reader, cherry-pick, antagonist series (AID 743416); assay type: functional, cell-based
[9] = LGR2 antagonists, dose response, cell-based, HEK293, CRE-luciferase reporter, cherry pick, set 2 (AID 743343); assay type: functional;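 note: transfected cells were stimulated with diluted bursicon conditioned medium after compound addition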
[10] = Glucagon-like peptide 1 release potency, NCI-H716 cell line, dose-response, half-maximal inhibitory concentration (AID 1117344); assay type: functional, cell-based
[11] = half-maximal inhibitory concentration for glucagon-like peptide-1 release, STC-1 cell line, dose-response (AID 1117345); assay type: functional, cell-based
[12] = cytotoxicity toward Colo320 cells – cell-based, CellTiter-Glo luminescence, IC50, dose response (AID 1117334); assay type: functional; details: COLO 320
[13] = SNU-C1 cell viability reduction, dose response, CellTiter-Glo luminescence (AID 1117323); assay type: functional, cell-based
[14] = HeLa 2N DNA content increase, dose response, cell-based, IC50 (AID 1117349); assay type: functional
[15] = HeLa 4N DNA content increase, dose response, cell-based, IC50 (AID 1117351); assay type: functional
[16] = HCT116 cell viability decrease, GSK3B pretreatment – CellTiter-Glo, IC50, dose response (AID 1117339); assay type: functional; details: HCT-116
[17] = RKO cell viability reduction, dose response, CellTiter-Glo luminescence (AID 1117322); assay type: functional
[18] = cytotoxicity toward HCT116 cells – cell-based, CellTiter-Glo luminescence, IC50, dose response (AID 1117332); assay type: functional; details: HCT-116
[19] = Concentration-dependent survival of SW480 colon cancer line, luminescence detection with CellTiter-Glo, half-maximal inhibitory concentration (AID 1117338); assay type: functional
[20] = CellTiter-Glo luminescent dose response of DLD-1 viability loss (AID 1117352); assay type: functional
[21] = cytotoxicity toward HT-29 cells – cell-based, CellTiter-Glo luminescence, IC50, dose response (AID 1117330); assay type: functional
[22] = Luminescence Cell-Based Dose Retest to Confirm Inhibitors of Cancer Stem Cells. [Related pubchem assays (depositor defined):AID2717, AID2721]; assay type: functional; details: Homo sapiens
[23] = microbe, parasite or virus in culture; assay type: functional; details: Mycobacterium tuberculosis
[24] = target: T3, Ubiquitin-conjugating enzyme E2 N (Homo sapiens, UniProt P61088); assay type: functional;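 note: Dose-response confirmation in a TR-FRET assay detecting UBC13-driven polyubiquitin chain formation, inhibition measured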
T3 sequence (P61088 whole entry): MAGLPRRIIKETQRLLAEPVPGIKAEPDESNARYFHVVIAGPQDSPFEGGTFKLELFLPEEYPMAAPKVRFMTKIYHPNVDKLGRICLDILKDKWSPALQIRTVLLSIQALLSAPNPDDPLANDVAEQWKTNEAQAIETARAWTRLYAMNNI

[25] = control 3'UTR Renilla luciferase suppression, dose response, counter-screen for Shn3 inhibitor project, cell-based, Clone20-Shn3RL, cherry-picked (AID 624133); assay type: functional
[26] = Shn3 3'UTR reporter inhibitors, dose response, cell-based, Clone20 osteoblasts, firefly luciferase, cherry-picked (AID 624132); assay type: functional;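 note: firefly luciferase luminescence from reporter carrying the Shn3 3'UTR in osteoblasts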
INS1 = test: beta cell apoptosis inhibitors, cytokine rescue, dose response, luminescence, retest (AID 449756); assay type: functional, cell-based; details: Rattus norvegicus;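 note: cell death triggered by IL-1 beta plus TNF-alpha plus IFN-gamma mixture; protective hits raise ATP signal compared with cytokine alone wells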

Sequence of Tyrosyl-DNA phosphodiesterase 2 (O95551 whole entry): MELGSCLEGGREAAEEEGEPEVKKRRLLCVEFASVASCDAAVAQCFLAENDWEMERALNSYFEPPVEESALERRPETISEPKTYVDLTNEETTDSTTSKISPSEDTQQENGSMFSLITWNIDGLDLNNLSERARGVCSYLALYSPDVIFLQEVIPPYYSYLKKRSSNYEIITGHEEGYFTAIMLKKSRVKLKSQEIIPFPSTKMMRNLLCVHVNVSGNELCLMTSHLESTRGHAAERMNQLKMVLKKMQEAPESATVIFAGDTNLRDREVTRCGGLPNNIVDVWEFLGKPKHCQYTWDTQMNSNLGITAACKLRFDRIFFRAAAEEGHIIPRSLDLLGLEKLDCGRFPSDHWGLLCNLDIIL
Sequence of Beta-galactosidase (Q8VNN2 whole entry): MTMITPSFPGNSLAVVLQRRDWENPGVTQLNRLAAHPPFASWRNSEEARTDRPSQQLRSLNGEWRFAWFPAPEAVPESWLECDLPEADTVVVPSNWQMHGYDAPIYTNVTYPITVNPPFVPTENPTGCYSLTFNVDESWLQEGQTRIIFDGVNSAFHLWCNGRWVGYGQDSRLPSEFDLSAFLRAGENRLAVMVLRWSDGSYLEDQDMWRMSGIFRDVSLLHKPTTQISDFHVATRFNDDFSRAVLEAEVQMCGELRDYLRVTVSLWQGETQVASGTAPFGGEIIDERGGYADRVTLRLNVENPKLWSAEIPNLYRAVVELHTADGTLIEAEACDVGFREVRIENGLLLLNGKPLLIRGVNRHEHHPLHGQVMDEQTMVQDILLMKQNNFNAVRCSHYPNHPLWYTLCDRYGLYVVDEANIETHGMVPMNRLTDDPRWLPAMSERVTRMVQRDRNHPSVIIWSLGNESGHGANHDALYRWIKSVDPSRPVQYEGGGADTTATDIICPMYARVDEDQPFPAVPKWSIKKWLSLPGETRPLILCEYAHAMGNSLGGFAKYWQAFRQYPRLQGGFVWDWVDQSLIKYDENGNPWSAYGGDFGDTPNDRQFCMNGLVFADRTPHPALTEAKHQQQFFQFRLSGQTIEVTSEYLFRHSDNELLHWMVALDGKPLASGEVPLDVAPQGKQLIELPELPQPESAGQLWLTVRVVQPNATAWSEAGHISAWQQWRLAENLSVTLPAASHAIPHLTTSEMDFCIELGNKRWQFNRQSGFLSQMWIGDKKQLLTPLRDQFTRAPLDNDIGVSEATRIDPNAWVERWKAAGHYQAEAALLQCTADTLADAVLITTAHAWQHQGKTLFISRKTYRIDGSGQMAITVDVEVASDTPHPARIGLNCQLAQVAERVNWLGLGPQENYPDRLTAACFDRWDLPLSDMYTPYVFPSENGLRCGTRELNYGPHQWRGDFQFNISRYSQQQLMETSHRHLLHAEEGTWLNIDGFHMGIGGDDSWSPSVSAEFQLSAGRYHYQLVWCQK
Sequence of Albumin (P02769 whole entry): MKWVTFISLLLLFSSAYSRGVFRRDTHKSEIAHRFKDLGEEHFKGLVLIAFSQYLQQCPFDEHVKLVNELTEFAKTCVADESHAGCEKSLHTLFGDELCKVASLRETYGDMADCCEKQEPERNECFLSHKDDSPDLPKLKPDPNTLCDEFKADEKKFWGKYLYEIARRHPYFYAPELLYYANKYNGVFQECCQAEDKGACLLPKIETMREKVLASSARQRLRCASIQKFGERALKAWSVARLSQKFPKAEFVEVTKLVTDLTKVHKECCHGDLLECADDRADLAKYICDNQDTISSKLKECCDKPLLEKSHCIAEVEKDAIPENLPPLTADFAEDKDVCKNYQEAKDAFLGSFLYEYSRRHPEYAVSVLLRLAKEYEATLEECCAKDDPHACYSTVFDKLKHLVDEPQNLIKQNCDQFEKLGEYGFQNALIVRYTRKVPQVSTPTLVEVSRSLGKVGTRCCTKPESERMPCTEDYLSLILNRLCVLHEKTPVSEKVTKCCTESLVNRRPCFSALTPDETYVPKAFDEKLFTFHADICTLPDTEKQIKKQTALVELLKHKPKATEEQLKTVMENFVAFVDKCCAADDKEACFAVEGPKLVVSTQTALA

## Cn1nnc(NC(=O)c2cccc(F)c2)n1
[1]
  IC50: > 100 µM (active)

## COc1ccc(C(=O)NC(=S)Nc2cccc(Cl)c2N2CCOCC2)cc1[N+](=O)[O-]
Beta-galactosidase
  EC50: > 40 µM (inactive)
[2]
  IC50: > 40 µM (not active)
HeLa
  AC50: 28.8 µM (active)
HeLa; Homo sapiens
  AC50: > 52 µM (inactive)

## Cc1cc(NC2=CC(=O)C(=O)c3ccccc32)no1
[3]
  IC50: 3.52 µM (active)

## O=C(Cc1ccccc1)N/N=C/c1cc(Br)cc(Br)c1O
Albumin
  IC50: > 94.1 µM (inactive)

## COc1ccc(-c2nc3ccccc3s2)cc1
[4]
  AC50: > 52 µM (inactive)
[5]
  AC50: > 100 µM (inactive)
[6]
  AC50: 42.9 µM (active)
[7]
  AC50: 2.75 µM (active)
[8]
  AC50: > 52 µM (inactive)
[9]
  AC50: 2.17 µM (active)

## C=CC1=C(C)c2cc3[nH]c(cc4nc(cc5[nH]c(cc1n2)c(C)c5CCC(=O)O)C(CCC(=O)O)=C4C)c(C)c3C=C [PROTOPORPHYRIN DISODIUM]
[10]
  IC50: 19.6 µM (inactive)
[11]
  IC50: > 40 µM (inactive)

## CC(C)=CCOc1ccc(/C=C/C(=O)c2ccc(OCC=C(C)C)cc2OCC(=O)O)cc1 [SOFALCONE]
[12]
  IC50: 1.55 µM (active)
[13]
  IC50: 7.44 µM (inactive)
[14]
  IC50: > 10 µM (inactive)
[15]
  IC50: > 10 µM (inactive)
[16]
  IC50: 3.04 µM (active)
[17]
  IC50: 5.53 µM (inactive)
[18]
  IC50: > 6.67 µM (inactive)
[19]
  IC50: 2.92 µM (active)
[20]
  IC50: 5.36 µM (inactive)
[21]
  IC50: 5.4 µM (inactive)

## CCCCCCCCNC(C)C(O)c1ccc(SC(C)C)cc1 (stereo not drawn) [SULOCTIDIL]
[10]
  IC50: 13 µM (inactive)
[22]
  AC50: 2.11 µM (active)
[23]
  CC50: 17.3 µM (active)
[24]
  IC50: > 20 µM (inactive)
[25]
  AC50: 8.28 µM (active)
[26]
  AC50: 3.94 µM (active)
INS1
  AC50: 8.21 µM (active)
[11]
  IC50: > 40 µM (inactive)
